Reference: US20060084688A1, “Aromatic sulfone hydroxamic acid metalloprotease inhibitor” (priority 1997, published 2006)

Columns and labels:
Assay in all cases: biochemical
Conditions in all cases: Inhibition Table B
recombinant human MMP-1 = target: T1, recombinant human MMP-1 (Homo sapiens, UniProt P03956)
T1 construct: made in house; host or cells: transfected HT-1080 cells
T1 sequence (P03956 100-469): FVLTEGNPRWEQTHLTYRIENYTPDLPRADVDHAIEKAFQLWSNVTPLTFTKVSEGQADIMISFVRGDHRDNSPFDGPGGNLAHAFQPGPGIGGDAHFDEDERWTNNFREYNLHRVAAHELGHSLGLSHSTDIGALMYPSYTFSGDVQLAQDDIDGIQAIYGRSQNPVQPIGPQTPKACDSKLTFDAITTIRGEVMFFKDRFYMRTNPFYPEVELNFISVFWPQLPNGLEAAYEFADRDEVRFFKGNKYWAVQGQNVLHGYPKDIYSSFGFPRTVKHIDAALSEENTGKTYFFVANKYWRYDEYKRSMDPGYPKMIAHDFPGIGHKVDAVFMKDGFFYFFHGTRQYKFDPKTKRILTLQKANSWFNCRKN

recombinant human MMP-13 = recombinant human MMP-13 (Homo sapiens, UniProt P45452)
recombinant human MMP-2 = target: T2, recombinant human MMP-2 (Homo sapiens, UniProt P08253)
T2 sequence (P08253 110-660): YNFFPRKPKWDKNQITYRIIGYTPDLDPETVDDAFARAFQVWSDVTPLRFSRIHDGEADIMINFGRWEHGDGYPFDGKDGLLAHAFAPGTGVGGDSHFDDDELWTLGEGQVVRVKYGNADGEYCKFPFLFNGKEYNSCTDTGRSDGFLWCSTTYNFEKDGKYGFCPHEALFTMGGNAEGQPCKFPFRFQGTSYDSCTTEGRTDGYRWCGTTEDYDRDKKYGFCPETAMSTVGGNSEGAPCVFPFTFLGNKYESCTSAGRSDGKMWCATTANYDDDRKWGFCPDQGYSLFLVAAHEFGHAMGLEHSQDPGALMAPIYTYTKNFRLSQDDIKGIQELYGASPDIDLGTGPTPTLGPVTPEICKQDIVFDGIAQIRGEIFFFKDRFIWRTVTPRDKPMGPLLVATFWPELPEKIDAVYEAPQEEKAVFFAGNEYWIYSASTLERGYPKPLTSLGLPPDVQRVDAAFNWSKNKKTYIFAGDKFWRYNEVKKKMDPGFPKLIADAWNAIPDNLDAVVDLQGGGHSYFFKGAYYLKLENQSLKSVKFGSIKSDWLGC

Row | Compound | IC50 (recombinant human MMP-1) [µM] | IC50 (recombinant human MMP-13) [µM] | IC50 (recombinant human MMP-2) [µM]
1 | O=C(C1CCCN(c2ccc(S(=O)(=O)C3(C(=O)NO)CCOCC3)cc2)C1)N1CCNCC1 (stereo not drawn) [Example 158] | > 10 | 0.08 | 5
2 | O=C(C1CCN(c2ccc(S(=O)(=O)C3(C(=O)NO)CCOCC3)cc2)CC1)N1CCNCC1 [Example 151] | > 10 | 0.035 | 1.5
3 | O=C(NC1CCCCCC1)C1CCN(c2ccc(S(=O)(=O)C3(C(=O)NO)CCOCC3)cc2)CC1 [Example 194] |  | 0.008 | 0.165
4 | O=C(NCc1ccccn1)C1CCN(c2ccc(S(=O)(=O)C3(C(=O)NO)CCOCC3)cc2)CC1 [Example 196] | > 10 | 0.025 | 0.24
5 | CNC(=O)C1CCN(c2ccc(S(=O)(=O)C3(C(=O)NO)CCOCC3)cc2)CC1 [Example 130] | > 10 | 0.0459 | 0.0577
6 | O=C(C1CCCCCC1)N1CCN(c2ccc(S(=O)(=O)C3(C(=O)NO)CCOCC3)cc2)CC1 [Example 202] | > 10 | 0.00915 | 0.054
7 | O=C(Oc1ccc([N+](=O)[O-])cc1)N1CCN(c2ccc(S(=O)(=O)C3(C(=O)NO)CCOCC3)cc2)CC1 [Example 205] | 7.3 | 0.002 | 0.0127
8 | CN1CCN(C(=O)N2CCN(c3ccc(S(=O)(=O)C4(C(=O)NO)CCOCC4)cc3)CC2)CC1 [Example 210] | > 10 | 0.02 | 0.027
9 | CCOC(=O)C1CCCCN1C(=O)C1CCCN(c2ccc(S(=O)(=O)C3(C(=O)NO)CCOCC3)cc2)C1 (stereo not drawn) [Example 161] | > 10 | > 0.1 | > 1
10 | CCOC(=O)C1CCN(C(=O)C2CCN(c3ccc(S(=O)(=O)C4(C(=O)NO)CCOCC4)cc3)CC2)CC1 [Example 152] | > 10 | 0.0165 | 2.4
11 | CN(C)C(=O)N1CCN(c2ccc(S(=O)(=O)C3(C(=O)NO)CCOCC3)cc2)CC1 [Example 208] | > 10 | 0.027 | 0.027
12 | O=C(C1CCCN(c2ccc(S(=O)(=O)C3(C(=O)NO)CCOCC3)cc2)C1)N1CCCCCC1 (stereo not drawn) [Example 162] | > 10 | > 0.1 | > 1
13 | O=C([C@@H]1CCCN1)N1CCN(c2ccc(S(=O)(=O)C3(C(=O)NO)CCOCC3)cc2)CC1 [Example 203] | 8.5 | 0.03 | 0.031
14 | O=C(NO)C1(S(=O)(=O)c2ccc(-c3ccc(Cl)cc3)cc2)CCOCC1 [Example 216] | 1 | < 0.001 | < 0.001
15 | CC1(C)C[C@@H]2C[C@@](C)(CN2C(=O)C2CCN(c3ccc(S(=O)(=O)C4(C(=O)NO)CCOCC4)cc3)CC2)C1 [Example 164] | > 10 | 0.02 | 1.75
16 | Cc1ccc(-c2ccc(S(=O)(=O)C3(C(=O)NO)CCOCC3)cc2)cc1C [Example 223] | 1.1 | < 0.001 | < 0.001
17 | O=C(C1CCN(c2ccc(S(=O)(=O)C3(C(=O)NO)CCOCC3)cc2)CC1)N1CCCCCC1 [Example 165] | > 10 | 0.0136 | 0.33
18 | O=C(NC1CCc2ccccc21)C1CCN(c2ccc(S(=O)(=O)C3(C(=O)NO)CCOCC3)cc2)CC1 (stereo not drawn) [Example 188] | > 10 | 0.0094 | 0.35
19 | O=C(C1CCN(c2ccc(S(=O)(=O)C3(C(=O)NO)CCOCC3)cc2)CC1)N1CCC(O)(Cc2ccccc2)CC1 [Example 193] | > 10 | 0.006 | 0.39
20 | O=C(C1CCN(c2ccc(S(=O)(=O)C3(C(=O)NO)CCOCC3)cc2)CC1)N1CCCC1 [Example 179] | > 10 |  | 0.44
21 | C#CCN1CCC(C(=O)NO)(S(=O)(=O)c2ccc([S+]([O-])c3ccccc3)cc2)CC1 (stereo not drawn) [Example 47b] | > 10 | 3.1 | 3
22 | C[C@@H]1CN(C(=O)C2CCCN(c3ccc(S(=O)(=O)C4(C(=O)NO)CCOCC4)cc3)C2)C[C@H](C)O1 (stereo partly drawn) [Example 169] |  | > 0.1 | > 1
23 | CCCCNC(=O)C1CCN(c2ccc(S(=O)(=O)C3(C(=O)NO)CCOCC3)cc2)CC1 [Example 181] |  | 0.0061 | 0.121
24 | O=C(C1CCN(c2ccc(S(=O)(=O)C3(C(=O)NO)CCOCC3)cc2)CC1)N1CCCCC1 [Example 149] | > 10 | 0.0155 | 1.6

Row | Compound | IC50 (recombinant human MMP-1) [µM] | IC50 (recombinant human MMP-13) [µM] | IC50 (recombinant human MMP-2) [µM]
25 | O=C(C1CCCN(c2ccc(S(=O)(=O)C3(C(=O)NO)CCOCC3)cc2)C1)N1CCCC2CCCCC21 (stereo not drawn) [Example 170] |  | > 0.1 | > 1
26 | O=C(C1CCCN(c2ccc(S(=O)(=O)C3(C(=O)NO)CCOCC3)cc2)C1)N1CCC(O)C1 (stereo not drawn) [Example 166] | > 10 | > 0.1 | > 1
27 | O=C(O)C1CCCN(c2ccc(S(=O)(=O)C3(C(=O)NO)CCOCC3)cc2)C1 (stereo not drawn) [Example 138] | > 10 | > 0.1 | > 0.1
28 | NCCCNC(=O)C1CCCN(c2ccc(S(=O)(=O)C3(C(=O)NO)CCOCC3)cc2)C1 (stereo not drawn) [Example 142] | > 10 | 0.07 | 0.6
29 | O=C(NN1CCOCC1)C1CCN(c2ccc(S(=O)(=O)C3(C(=O)NO)CCOCC3)cc2)CC1 [Example 185] | > 10 | 0.0175 | 0.21
30 | C=CCN(CC=C)C(=O)C1CCN(c2ccc(S(=O)(=O)C3(C(=O)NO)CCOCC3)cc2)CC1 [Example 182] | > 10 | 0.004 | 0.24
31 | CNC(=O)C1CCCN(c2ccc(S(=O)(=O)C3(C(=O)NO)CCOCC3)cc2)C1 (stereo not drawn) [Example 139] | > 10 | 0.0254 | 
32 | O=C(NO)C1(S(=O)(=O)c2ccc(-c3cc4ccccc4o3)cc2)CCOCC1 [Example 229] | > 10 | < 0.001 | < 0.001
33 | O=C(N1CCNCC1)N1CCN(c2ccc(S(=O)(=O)C3(C(=O)NO)CCOCC3)cc2)CC1 [Example 209] | > 10 | 0.02 | 0.019
34 | O=C(NCc1ccncc1)C1CCN(c2ccc(S(=O)(=O)C3(C(=O)NO)CCOCC3)cc2)CC1 [Example 195] |  | 0.0145 | 
35 | CCN(CC)C(=O)C1CCN(c2ccc(S(=O)(=O)C3(C(=O)NO)CCOCC3)cc2)CC1 [Example 148] | > 10 | 0.031 | 2.4
36 | CC1(C)C[C@@H]2C[C@@](C)(CN2C(=O)C2CCCN(c3ccc(S(=O)(=O)C4(C(=O)NO)CCOCC4)cc3)C2)C1 (stereo partly drawn) [Example 163] | > 10 | 0.0774 | 4
37 | O=C(C1CCCN(c2ccc(S(=O)(=O)C3(C(=O)NO)CCOCC3)cc2)C1)N1CCCCC1 (stereo not drawn) [Example 156] | > 10 | 0.0278 | 3.3
38 | CC(C)NC(=O)C1CCN(c2ccc(S(=O)(=O)C3(C(=O)NO)CCOCC3)cc2)CC1 [Example 184] | > 10 | 0.007 | 0.094
39 | O=C(NO)C1(S(=O)(=O)c2ccc(-c3cccc([N+](=O)[O-])c3)cc2)CCOCC1 [Example 214] | 1.1 | < 0.001 | < 0.001
40 | CN(C)C(=O)C1CCN(c2ccc(S(=O)(=O)C3(C(=O)NO)CCOCC3)cc2)CC1 [Example 147] | > 10 | 0.031 | 2.7
41 | CCNC(=O)C1CCN(c2ccc(S(=O)(=O)C3(C(=O)NO)CCOCC3)cc2)CC1 [Example 134] | 9 | 0.004 | 0.029
42 | CN(C)CCCN(CCCN(C)C)C(=O)C1CCN(c2ccc(S(=O)(=O)C3(C(=O)NO)CCOCC3)cc2)CC1 [Example 183] | > 10 | 0.04 | 0.288
43 | O=C(NCCO)C1CCCN(c2ccc(S(=O)(=O)C3(C(=O)NO)CCOCC3)cc2)C1 (stereo not drawn) [Example 141] | > 10 | > 0.1 | > 0.1
44 | CCNC(=O)C1CCCN(c2ccc(S(=O)(=O)C3(C(=O)NO)CCOCC3)cc2)C1 (stereo not drawn) [Example 143] | > 10 | 0.0239 | 0.9
45 | O=C(NCCO)C1CCN(c2ccc(S(=O)(=O)C3(C(=O)NO)CCOCC3)cc2)CC1 [Example 132] | > 10 |  | 0.42
46 | C[C@@H]1CN(C(=O)C2CCN(c3ccc(S(=O)(=O)C4(C(=O)NO)CCOCC4)cc3)CC2)C[C@H](C)O1 [Example 176] |  | 0.025 | 0.4
47 | N[C@H]1CCN(C(=O)C2CCN(c3ccc(S(=O)(=O)C4(C(=O)NO)CCOCC4)cc3)CC2)C1 [Example 175] |  | > 0.1 | > 1
48 | O=C(C1CCCN(c2ccc(S(=O)(=O)C3(C(=O)NO)CCOCC3)cc2)C1)N1CCOCC1 (stereo not drawn) [Example 140] | > 10 | 0.06 | 
